The results in this text go back to patent publication US20260115209A1, “COMBINATION THERAPY INCLUDING COX-2 INHIBITOR FOR THE TREATMENT OF CANCER” (THE REGENTS OF THE UNIVERSITY OF CALIFORNIA, priority 2022, published 2026).

Structures are written as SMILES.

Holding throughout (test): Cell viability assay (CellTiter-Glo), GI50, 3-day treatment
Common to all, as to format: cell-based

One experiment concerns Sk-Mel-28. To be noted: Homo sapiens, 72 h; Sk-Mel-28 (BRAF^V600E melanoma); 50% growth inhibition after 3 days of treatment compared to control; read-out: GI50 concentrations. The protocol:
(§1) To assess the growth/survival response of cell lines to single or combinatorial drug treatments, we used CellTiter-Glo cell viability assay (Promega; cat #G7571). Cell culture and luminescence readouts were performed in 96- and 384-well plates after 3-day treatments. GI50 corresponds to the concentration of a given drug that causes 50% inhibition of cell growth (GI50). The effects of drug combinations on cell growth were assessed by calculating fold change in VEM-sensitivity and combination index (C.I.) that were experimentally measured from ≥9 individual datapoints around drugs' GI50, i.e. at GI50, 0.5×GI50, 2×GI50 concentrations of each drug per drug combination experiment. To address the particular effects of some drug treatments on some cell lines, the choice of experimental datapoints centered around drugs' GI50 effects was adjusted by including individual datapoints ranging from ≥GI25 to ≤GI75, leading to calculate fold change in VEM-sensitivity and combination index (C.I.) from 12 to 20 individual datapoints, as previously explained (7).

For another experiment, the system named is OUMS23. To be noted: OUMS-23, 72 h; OUMS23 (CRC MAP3K8^amp); 50% growth inhibition after 3 days of treatment compared to control; read-out: GI50 concentrations. The protocol:
as §1

The subject of a further experiment is LIM2405. To be noted: 72 h; LIM2405 (BRAF^V600E CRC); 50% growth inhibition after 3 days of treatment compared to control; read-out: GI50 concentrations. The protocol:
as §1

Another experiment deals with LS411N. The note with it: Homo sapiens, LS-411N, 72 h; LS411N (BRAF^V600E CRC); 50% growth inhibition after 3 days of treatment compared to control; read-out: GI50 concentrations. The protocol:
as §1

The subject of the next experiment is A375. To be noted: Homo sapiens, A-375, 72 h; A375 (BRAF^V600E melanoma); 50% growth inhibition after 3 days of treatment compared to control; read-out: GI50 concentrations. The protocol: as §1
For the next experiment, the system named is RKO1. The note with it: 72 h; RKO1 (BRAF^V600E CRC); 50% growth inhibition after 3 days of treatment compared to control; read-out: GI50 concentrations. The protocol: as §1
Another experiment relates to HT29. To be noted: Homo sapiens, HT-29, 72 h; HT29 (BRAF^V600E CRC); 50% growth inhibition after 3 days of treatment compared to control; read-out: GI50 concentrations. The protocol: as §1
For another experiment, the system named is SNUC5. The note with it: 72 h; SNUC5 (BRAF^V600E CRC); 50% growth inhibition after 3 days of treatment compared to control; read-out: GI50 concentrations. The protocol:
as §1

Another experiment concerns VACO432. To be noted: 72 h; VACO432 (BRAF^V600E CRC); 50% growth inhibition after 3 days of treatment compared to control; read-out: GI50 concentrations. The protocol: as §1
The subject of another experiment is KM20. To be noted: 72 h; KM20 (BRAF^V600E CRC); 50% growth inhibition after 3 days of treatment compared to control; read-out: GI50 concentrations. The protocol: as §1

With `CCCS(=O)(=O)Nc1ccc(F)c(C(=O)c2c[nH]c3ncc(-c4ccc(Cl)cc4)cc23)c1F` [vemurafenib, N-[3-[5-(4-chlorophenyl)-1H-pyrrolo[2,3-b]pyridine-3-carbonyl]-2,4-difluorophenyl]propane-1-sulfonamide], the GI50 in the experiment with Sk-Mel-28 was determined as 150 nM; in the experiment on OUMS23 it was 1400 nM; in the experiment with LIM2405, 150 nM; in the experiment on LS411N it was 1450 nM; in the experiment with A375 it was 10 nM; in the experiment with RKO1, 1700 nM. Further, the GI50 came to 1750 nM in the experiment on HT29, 2250 nM in the experiment with SNUC5, 1150 nM in the experiment on VACO432 and 2000 nM in the experiment on KM20.
